From ChEMBL document CHEMBL1133320, “Inhibition of the ras-dependent mitogenic pathway by phosphopeptide prodrugs with antiproliferative properties” (Bioorg Med Chem Lett, 2000) come the findings set out here.

pKd: −log10 of the molar value. Numbered stars: 1 amine (or outer) side, 2 acyl side, 3 side chain; on linkers, the order of the positions; unused ones are H or OH. Square brackets hold non-standard residues; d marks the D form. Peptide text beside a SMILES is read from it. ξ: configuration not given here. X2 = CC(C)(C)C(=O)SCCOP(=O)(OCCSC(=O)C(C)(C)C)Oc1ccc(C[C@H](N[*:1])C(=O)[*:2])cc1; X1 = CC(=O)SCCOP(=O)(OCCSC(C)=O)Oc1ccc(C[C@H](N[*:1])C(=O)[*:2])cc1; F2Pmp = N[C@@H](Cc1ccc(C(F)(F)P(=O)(O)O)cc1)C(=O)O; Pmp = N[C@@H](Cc1ccc(CP(=O)(O)O)cc1)C(=O)O; pY = N[C@@H](Cc1ccc(OP(=O)(O)O)cc1)C(=O)O; ξP = O=C(O)C1CCCN1

Experiment [1] has as its target T1, Growth factor receptor-bound protein 2 (Homo sapiens, UniProt P62993). Description: Dissociation constant of compound was determined from affinity of compound towards Growth factor receptor bound protein 2 measured by fluorescence.
Experiment [2] has as its target T1, Growth factor receptor-bound protein 2. Description: Dissociation constant of compound was determined from affinity of compound towards Growth factor receptor bound protein 2 measured by fluorescence; Non-detectable.

T1 sequence (P62993 whole entry): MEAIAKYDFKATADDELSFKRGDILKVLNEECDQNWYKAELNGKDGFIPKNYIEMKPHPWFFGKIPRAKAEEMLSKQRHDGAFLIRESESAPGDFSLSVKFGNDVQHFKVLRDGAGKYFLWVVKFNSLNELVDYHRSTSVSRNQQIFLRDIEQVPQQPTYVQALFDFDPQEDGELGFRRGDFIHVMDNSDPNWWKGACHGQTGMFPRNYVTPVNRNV

Take `CC(C)[C@H](NC(=O)[C@H](CC(N)=O)NC(=O)[C@@H](NC(=O)[C@H](Cc1ccc(C(F)(F)P(=O)(O)O)cc1)NC(=O)[C@H](CO)NC(=O)[C@@H]1CCCN1)C(C)C)C(=O)N[C@@H](CCC(N)=O)C(=O)N[C@@H](CC(N)=O)C(=O)O` (H-PS[F2Pmp]VNVQN-OH): the negative-log Kd (pKd) in experiment [1] was 6.70.
For `CC(C)[C@H](NC(=O)[C@H](CC(N)=O)NC(=O)[C@@H](NC(=O)[C@H](Cc1ccc(CP(=O)(O)O)cc1)NC(=O)[C@H](CO)NC(=O)[C@@H]1CCCN1)C(C)C)C(=O)N[C@@H](CCC(N)=O)C(=O)N[C@@H](CC(N)=O)C(=O)O` (H-PS[Pmp]VNVQN-OH), the pKd in experiment [1] is 6.59.
On to `CC(=O)N1CCC[C@H]1C(=O)N[C@@H](Cc1ccccc1)C(=O)N[C@@H](Cc1ccc(OP(=O)(OCCSC(=O)C(C)(C)C)OCCSC(=O)C(C)(C)C)cc1)C(=O)N[C@H](C(=O)N[C@@H](CC(N)=O)C(=O)N[C@H](C(=O)N1CCCC1C(N)=O)C(C)C)C(C)C` (stereo partly specified) (Ac-PF[X2]VNV[ξP]-NH2), for which, in experiment [2], the Kd entry is on record as “Not Active”.
As to `CC(=O)N1CCC[C@H]1C(=O)N[C@@H](Cc1ccccc1)C(=O)N[C@@H](Cc1ccc(OP(=O)(O)O)cc1)C(=O)N[C@H](C(=O)N[C@@H](CC(N)=O)C(=O)N[C@H](C(=O)N1CCC[C@H]1C(N)=O)C(C)C)C(C)C` (Ac-PF[pY]VNVP-NH2), in experiment [1], the pKd is 7.52.
Turning to `CC(=O)SCCOP(=O)(OCCSC(C)=O)Oc1ccc(C[C@H](NC(=O)[C@H](Cc2ccccc2)NC(=O)[C@@H]2CCCN2C(C)=O)C(=O)N[C@H](C(=O)N[C@@H](CC(N)=O)C(=O)N[C@H](C(=O)N2CCC[C@H]2C(N)=O)C(C)C)C(C)C)cc1` (Ac-PF[X1]VNVP-NH2), in experiment [2], the Kd result is reported as “Not Active”.
Compound `CC(C)[C@H](NC(=O)[C@H](CC(N)=O)NC(=O)[C@@H](NC(=O)[C@H](Cc1ccc(OP(=O)(O)O)cc1)NC(=O)[C@H](CO)NC(=O)[C@@H]1CCCN1)C(C)C)C(=O)N[C@@H](CCC(N)=O)C(=O)N[C@@H](CC(N)=O)C(=O)O` (H-PS[pY]VNVQN-OH) had a negative-log Kd (pKd) in experiment [1] of 7.74.
